Source: PubChem BioAssay AID2060501 (Molecular Pharmacology Branch, DTP, NCI, 2025)

Tested on: 282377-053-R-J1-PDC complex spheroids, viability
Assay: Anticancer human tumor 282377-053-R-J1-PDC patient-derived colon adenocarcinoma cell line growth inhibition [GQUAD]
Conditions: for IC50: curve of first compound; for viability, T/C: stronger effect = lower value
Summary of the method: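 Tumor cells were grown as complex spheroids with HUVEC endothelial cells and mesenchymal stem cells as stroma. G-quadruplex stabilizers were combined with targeted agents over half-log dilutions from near the clinical Cmax, or from 10 microM.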

[1] = second compound 0.0316 µM, first compound 0.0316 µM
[2] = second compound 0.0316 µM, first compound 0.1 µM
[3] = second compound 0.0316 µM, first compound 0.316 µM
[4] = second compound 0.0316 µM, first compound 1 µM
[5] = second compound 0.0316 µM, first compound 3.16 µM
[6] = second compound 0.0316 µM, first compound 10 µM
[7] = second compound 0.1 µM, first compound 0.0316 µM
[8] = second compound 0.1 µM, first compound 0.1 µM
[9] = second compound 0.1 µM, first compound 0.316 µM
[10] = second compound 0.1 µM, first compound 1 µM
[11] = second compound 0.1 µM, first compound 3.16 µM
[12] = second compound 0.1 µM, first compound 10 µM
[13] = second compound 0.316 µM, first compound 0.0316 µM
[14] = second compound 0.316 µM, first compound 0.1 µM
[15] = second compound 0.316 µM, first compound 0.316 µM
[16] = second compound 0.316 µM, first compound 1 µM
[17] = second compound 0.316 µM, first compound 3.16 µM
[18] = second compound 0.316 µM, first compound 10 µM
[19] = second compound 1 µM, first compound 0.0316 µM
[20] = second compound 1 µM, first compound 0.1 µM
[21] = second compound 1 µM, first compound 0.316 µM
[22] = second compound 1 µM, first compound 1 µM
[23] = second compound 1 µM, first compound 3.16 µM
[24] = second compound 1 µM, first compound 10 µM
[25] = second compound 3.16 µM, first compound 0.0316 µM
[26] = second compound 3.16 µM, first compound 0.1 µM
[27] = second compound 3.16 µM, first compound 0.316 µM
[28] = second compound 3.16 µM, first compound 1 µM
[29] = second compound 3.16 µM, first compound 3.16 µM
[30] = second compound 3.16 µM, first compound 10 µM
[31] = second compound 10 µM, first compound 0.0316 µM
[32] = second compound 10 µM, first compound 0.1 µM
[33] = second compound 10 µM, first compound 0.316 µM
[34] = second compound 10 µM, first compound 1 µM
[35] = second compound 10 µM, first compound 3.16 µM
[36] = second compound 10 µM, first compound 10 µM
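Note: spheroids exposed to compounds for 7 days before readout.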
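Throughout, for viability, T/C: percent of vehicle DMSO control viability with 100% = untreated-like growth.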

With CCCS(=O)(=O)Nc1ccc(F)c(C(=O)c2c[nH]c3ncc(-c4ccc(Cl)cc4)cc23)c1F + CN(C)c1ccc(Nc2c3ccc(NC(=O)CCN4CCCC4)cc3nc3cc(NC(=O)CCN4CCCC4)ccc23)cc1 the IC50 (second compound 0.0316 µM) was 4490 nM, the IC50 (second compound 0.1 µM) was 3490 nM and the IC50 (second compound 0.316 µM) was 2960 nM. It also gave an IC50 (second compound 1 µM) of 3870 nM, an IC50 (second compound 3.16 µM) of 3320 nM and an IC50 (second compound 10 µM) of 3740 nM. For the same molecule, the viability, T/C [1] was 81%, the viability, T/C [2] was 66% and the viability, T/C [3] was 58%. It also gave a viability, T/C [4] of 69.9%, a viability, T/C [5] of 64.5% and a viability, T/C [6] of 16.9%. For the same molecule, the viability, T/C [7] was 68.1%, the viability, T/C [8] was 56% and the viability, T/C [9] was 59.3%. It also gave a viability, T/C [10] of 61.4%, a viability, T/C [11] of 52.8% and a viability, T/C [12] of 19.4%. It also gave a viability, T/C [13] of 74.8%, a viability, T/C [14] of 65.7% and a viability, T/C [15] of 74.7%. The viability, T/C [16] was 49.3%, the viability, T/C [17] was 57.2% and the viability, T/C [18] was 15.6%. The viability, T/C [19] was 79.8%, the viability, T/C [20] was 60.9% and the viability, T/C [21] was 89.3%. For the same molecule, the viability, T/C [22] was 57.6%, the viability, T/C [23] was 59.2% and the viability, T/C [24] was 23.6%. It also gave a viability, T/C [25] of 73.3%, a viability, T/C [26] of 72.5% and a viability, T/C [27] of 68.7%. For the same molecule, the viability, T/C [28] was 67.1%, the viability, T/C [29] was 50.6% and the viability, T/C [30] was 21.6%. For the same molecule, the viability, T/C [31] was 82.1%, the viability, T/C [32] was 70.6% and the viability, T/C [33] was 75.6%. It also gave a viability, T/C [34] of 52.3%, a viability, T/C [35] of 65% and a viability, T/C [36] of 14.2%.
Cc1[nH]c2ccccc2c1CCNCc1ccc(/C=C/C(=O)NO)cc1 + CN(C)c1ccc(Nc2c3ccc(NC(=O)CCN4CCCC4)cc3nc3cc(NC(=O)CCN4CCCC4)ccc23)cc1 gave an IC50 (second compound 0.0316 µM) of 189 nM, an IC50 (second compound 0.1 µM) of 189 nM and an IC50 (second compound 0.316 µM) of 179 nM. The IC50 (second compound 1 µM) was 189 nM, the IC50 (second compound 3.16 µM) was 173 nM and the IC50 (second compound 10 µM) was 147 nM. It also gave a viability, T/C (second compound 0.0316 µM, first compound 0.000999 µM) of 106%, a viability, T/C (second compound 0.0316 µM, first compound 0.00316 µM) of 91.1% and a viability, T/C (second compound 0.0316 µM, first compound 0.00999 µM) of 109%. It also gave a viability, T/C [1] of 110%, a viability, T/C (second compound 0.0316 µM, first compound 0.0999 µM) of 106% and a viability, T/C [3] of 6.18%. The viability, T/C (second compound 0.1 µM, first compound 0.000999 µM) was 97.3%, the viability, T/C (second compound 0.1 µM, first compound 0.00316 µM) was 108% and the viability, T/C (second compound 0.1 µM, first compound 0.00999 µM) was 114%. It also gave a viability, T/C [7] of 89.3%, a viability, T/C (second compound 0.1 µM, first compound 0.0999 µM) of 105% and a viability, T/C [9] of 7.41%. The viability, T/C (second compound 0.316 µM, first compound 0.000999 µM) was 91.8%, the viability, T/C (second compound 0.316 µM, first compound 0.00316 µM) was 86.4% and the viability, T/C (second compound 0.316 µM, first compound 0.00999 µM) was 91.4%. For the same molecule, the viability, T/C [13] was 116%, the viability, T/C (second compound 0.316 µM, first compound 0.0999 µM) was 99.6% and the viability, T/C [15] was 3.85%. The viability, T/C (second compound 1 µM, first compound 0.000999 µM) was 90.2%, the viability, T/C (second compound 1 µM, first compound 0.00316 µM) was 98.5% and the viability, T/C (second compound 1 µM, first compound 0.00999 µM) was 108%. For the same molecule, the viability, T/C [19] was 121%, the viability, T/C (second compound 1 µM, first compound 0.0999 µM) was 103% and the viability, T/C [21] was 7.41%. The viability, T/C (second compound 3.16 µM, first compound 0.000999 µM) was 92.9%, the viability, T/C (second compound 3.16 µM, first compound 0.00316 µM) was 95.1% and the viability, T/C (second compound 3.16 µM, first compound 0.00999 µM) was 101%. For the same molecule, the viability, T/C [25] was 123%, the viability, T/C (second compound 3.16 µM, first compound 0.0999 µM) was 89.8% and the viability, T/C [27] was 6.57%. For the same molecule, the viability, T/C (second compound 10 µM, first compound 0.000999 µM) was 78.5%, the viability, T/C (second compound 10 µM, first compound 0.00316 µM) was 103% and the viability, T/C (second compound 10 µM, first compound 0.00999 µM) was 94.6%. For the same molecule, the viability, T/C [31] was 92.8%, the viability, T/C (second compound 10 µM, first compound 0.0999 µM) was 73.6% and the viability, T/C [33] was 3.92%.
For Nc1ccn(C2OC(CO)C(O)C2(F)F)c(=O)n1 (stereo unspecified) + CN(C)c1ccc(Nc2c3ccc(NC(=O)CCN4CCCC4)cc3nc3cc(NC(=O)CCN4CCCC4)ccc23)cc1, the IC50 (second compound 0.0316 µM) was 290 nM, the IC50 (second compound 0.1 µM) was 296 nM and the IC50 (second compound 0.316 µM) was 263 nM. For the same molecule, the IC50 (second compound 1 µM) was 271 nM, the IC50 (second compound 3.16 µM) was 227 nM and the IC50 (second compound 10 µM) was 228 nM. It also gave a viability, T/C [1] of 112%, a viability, T/C [2] of 68.5% and a viability, T/C [3] of 49.7%. It also gave a viability, T/C [4] of 35.8%, a viability, T/C [5] of 32.5% and a viability, T/C [6] of 20.7%. The viability, T/C [7] was 114%, the viability, T/C [8] was 78.7% and the viability, T/C [9] was 42.9%. For the same molecule, the viability, T/C [10] was 37.7%, the viability, T/C [11] was 30.8% and the viability, T/C [12] was 20.3%. The viability, T/C [13] was 115%, the viability, T/C [14] was 77.9% and the viability, T/C [15] was 40.9%. It also gave a viability, T/C [16] of 35.8%, a viability, T/C [17] of 33.7% and a viability, T/C [18] of 19.7%. It also gave a viability, T/C [19] of 95%, a viability, T/C [20] of 77.6% and a viability, T/C [21] of 42.7%. For the same molecule, the viability, T/C [22] was 35.7%, the viability, T/C [23] was 32.7% and the viability, T/C [24] was 20.3%. It also gave a viability, T/C [25] of 87.6%, a viability, T/C [26] of 59.9% and a viability, T/C [27] of 44.5%. For the same molecule, the viability, T/C [28] was 38.3%, the viability, T/C [29] was 38.5% and the viability, T/C [30] was 26.9%. It also gave a viability, T/C [31] of 92.1%, a viability, T/C [32] of 74% and a viability, T/C [33] of 40.2%. The viability, T/C [34] was 30.9%, the viability, T/C [35] was 36.3% and the viability, T/C [36] was 22.8%.
